Reference: US11179412B2, “Methods of treating conditions involving elevated inflammatory response” (University of Pittsburgh—Of the Commonwealth System of …, priority 2017, dated 2021)
Entries after “also recorded” stand apart in the source; their conditions may differ.

Assays:
[1] = test system: IFNβ mRNA in RAW264.7 cells; experiment: IFNβ mRNA Q-PCR, RAW264.7 cells; type: cell-based, mouse; conditions: STING ligands 10 μg/ml, inhibitor 10 μM, 16 hours
Experimental: Total RNA was extracted using QIAGEN RNeasy Plus Kit according to the manufacturer's instructions. First-strand cDNA was synthesized from 1 μg of RNA using the iScript cDNA Synthesis kit (#1708890, Bio-Rad). Briefly, 20 μl reactions were prepared by combining 4 μl iScript Select reaction mix, 2 μl gene-specific enhancer solution, 1 μl reverse transcriptase, 1 μl gene-specific assay pool (20×, 2 μM), and 12 μl RNA diluted in RNase-free water. Quantitative real-time PCR was carried out using synthesized cDNA, primers, and SsoFast EvaGreen Supermix (#172-5204, Bio-Rad). The expression of target genes was calculated using the ddCt method relative to the expression of a house-keeping gene, β-actin. Data shown are the relative quantity (RQ), with RQ of the control cells set to one.

[2] = test system: STING signaling (TBK1, IRF3, p65, ALK, EGFR, AKT phosphorylation) in THP1 cells; experiment: Western blot of STING pathway protein phosphorylation, THP1; type: cell-based, human; conditions: 10 μM
Experimental: (§1) For immunoblotting, cells were lysed in Cell Lysis Buffer (#9803, Cell Signaling Technology) with protease inhibitor cocktail (Promega), phosphatase inhibitor cocktail (Sigma), and 1 mM Na3VO4 (70). Cleared lysates were resolved by SDS-PAGE (#3450124, Bio-Rad) and then transferred onto PVDF membranes (#1704273, Bio-Rad). The membranes were blocked with Tris-buffered saline Tween 20 (TBST) containing 5% skim milk for 1 h at room temperature and then incubated with the indicated primary antibodies (1:1000-1:5000) overnight at 4° C. After being washed with TBST, the membranes were incubated with an HRP-linked anti-mouse IgG secondary antibody (#7076, Cell Signaling Technology) or HRP-linked anti-rabbit IgG secondary antibody (#7074, Cell Signaling Technology) for 1 h at room temperature. The membranes were washed three times in TBST and then visualized and analyzed with a ChemiDoc Touch Imaging System (#1708370, Bio-Rad). The intensities of bands were analyzed with Image Lab software.

[3] = test system: STING signaling (TBK1, IRF3, p65, ALK, EGFR, AKT phosphorylation) in RAW264.7 cells; experiment: Western blot of STING pathway protein phosphorylation, RAW264.7; type: cell-based, mouse; conditions: 10 μM
Experimental: as §1

[4] = target: T1, interaction between ALK and EGFR (Homo sapiens, UniProt P00533+Q9UM73); experiment: IP analysis of the interaction between ALK and EGFR, THP1; type: cell-based; conditions: 3′3′-cGAMP or c-di-AMP 10 μg/ml, 16 hours, 10 μM
T1 construct: endogenous in cells; host or cells: THP1 cells
Experimental: For immunoprecipitation, cells were lysed at 4° C. in ice-cold modified radioimmunoprecipitation lysis buffer (#9806, Cell Signaling Technology) and cell lysates were cleared by centrifugation (12,000 g, 10 min). Concentrations of proteins in the supernatant were determined by bicinchoninic acid assay. Prior to immunoprecipitation, samples containing equal amounts of proteins were pre-cleared with Protein A/G agarose/sepharose beads (#20423, Thermo Fisher Scientific Inc.) (4° C., 3 h) and subsequently incubated with various irrelevant IgG or anti-ALK (#ab190934, Abcam) or anti-EGFR antibodies (#2232S, Cell Signaling Technology) in the presence of Protein A/G agarose/sepharose beads overnight at 4° C. with gentle shaking. Following incubation, agarose/sepharose beads were washed extensively with PBS and proteins were eluted by boiling in 2× sodium dodecyl sulfate (SDS) sample buffer before SDS-PAGE electrophoresis.

[5] = test system: STING activation (IFNβ release) in pPMs; experiment: IFNβ release ELISA, primary peritoneal macrophages (pPMs); type: cell-based, mouse; conditions: 16 hours
Experimental: Mouse pPMs were isolated from C57BL/6J mice as previously described (69). In brief, eight-week-old female or male C57BL/6J mice were injected with 3.0% thioglycollate medium (2 mL/mouse) into the peritoneum. Three days after injection, mice were sacrificed and injected with 3 mL of 0.05% EDTA-PBS into the peritoneum to harvest peritoneal macrophages. Collected cells were centrifuged at 1000 rpm for 5 min at 4° C., and the cell pellet was washed with PBS and centrifuged again. The cell pellet was then suspended in Dulbecco's Modified Eagle Medium supplemented with 10% FBS and 1× Penicillin-Streptomycin and cultured in a culture dish.
(§2) Macrophages or monocytes were treated with 3′3′-cGAMP (10 μg/ml, Invitrogen) for 16 hours in the absence or presence of one compound (10 μM) from the Target-selective Inhibitory Library (#L3500, Selleck Chemicals). Commercially available enzyme-linked immunosorbent assay (ELISA) kits were used to measure the concentrations of mouse IFNβ (Thermo Fisher Scientific) or human IFNβ (Thermo Fisher Scientific) in culture medium according to the manufacturer's instructions.

[6] = test system: CLP-induced polymicrobial sepsis in C57BL/6J mice; experiment: CLP model of polymicrobial sepsis; type: in vivo, mouse
Experimental: sepsis was induced in male or female C57BL/6J mice (eight- to 10-weeks old, 22 to 26 g) using a surgical procedure as previously described (68). Briefly, anesthesia was induced with ketamine (80-100 mg/kg/i.p.) and xylazine (10-12.5 mg/kg/i.p.). A small midline abdominal incision was made and the cecum was exteriorized and ligated with 4-0 silk immediately distal to the ileocecal valve without causing intestinal obstruction. The cecum was then punctured twice with a 17-27-gauge needle. The abdomen was closed in two layers and mice were injected subcutaneously with 1 ml Ringer's solution including analgesia (0.05 mg/kg buprenorphine). […]
Biochemical measurements of tissue enzymes (CK, AMYL, BUN, and ALT) in serum were performed using the IDEXX Catalyst Dx Chemistry Analyzer according to the manufacturer's protocol.
Tissues were embedded in optimum cutting temperature cryomedium (Sakura Finetek, Zoeterwoude, the Netherlands) and cut into 4 μm sections. The deparaffinized sections were then stained using the standard H&E method. The stained slides were observed using an EVOS FL Auto Cell Imaging System (Invitrogen), five fields per section and three sections per sample.

[7] = test system: STING activation (IFNβ release) in J774A.1 cells; experiment: IFNβ release ELISA, J774A.1 cells; type: cell-based, mouse; conditions: STING ligands 10 μg/ml, inhibitor 10 μM, 16 hours
Experimental: as §2

[8] = 3′3′-cGAMP 10 μg/ml, three to 16 hours
[9] = 3′3′-cGAMP or c-di-AMP 10 μg/ml, 16 hours

T1 sequence (Q9UM73 19-1620): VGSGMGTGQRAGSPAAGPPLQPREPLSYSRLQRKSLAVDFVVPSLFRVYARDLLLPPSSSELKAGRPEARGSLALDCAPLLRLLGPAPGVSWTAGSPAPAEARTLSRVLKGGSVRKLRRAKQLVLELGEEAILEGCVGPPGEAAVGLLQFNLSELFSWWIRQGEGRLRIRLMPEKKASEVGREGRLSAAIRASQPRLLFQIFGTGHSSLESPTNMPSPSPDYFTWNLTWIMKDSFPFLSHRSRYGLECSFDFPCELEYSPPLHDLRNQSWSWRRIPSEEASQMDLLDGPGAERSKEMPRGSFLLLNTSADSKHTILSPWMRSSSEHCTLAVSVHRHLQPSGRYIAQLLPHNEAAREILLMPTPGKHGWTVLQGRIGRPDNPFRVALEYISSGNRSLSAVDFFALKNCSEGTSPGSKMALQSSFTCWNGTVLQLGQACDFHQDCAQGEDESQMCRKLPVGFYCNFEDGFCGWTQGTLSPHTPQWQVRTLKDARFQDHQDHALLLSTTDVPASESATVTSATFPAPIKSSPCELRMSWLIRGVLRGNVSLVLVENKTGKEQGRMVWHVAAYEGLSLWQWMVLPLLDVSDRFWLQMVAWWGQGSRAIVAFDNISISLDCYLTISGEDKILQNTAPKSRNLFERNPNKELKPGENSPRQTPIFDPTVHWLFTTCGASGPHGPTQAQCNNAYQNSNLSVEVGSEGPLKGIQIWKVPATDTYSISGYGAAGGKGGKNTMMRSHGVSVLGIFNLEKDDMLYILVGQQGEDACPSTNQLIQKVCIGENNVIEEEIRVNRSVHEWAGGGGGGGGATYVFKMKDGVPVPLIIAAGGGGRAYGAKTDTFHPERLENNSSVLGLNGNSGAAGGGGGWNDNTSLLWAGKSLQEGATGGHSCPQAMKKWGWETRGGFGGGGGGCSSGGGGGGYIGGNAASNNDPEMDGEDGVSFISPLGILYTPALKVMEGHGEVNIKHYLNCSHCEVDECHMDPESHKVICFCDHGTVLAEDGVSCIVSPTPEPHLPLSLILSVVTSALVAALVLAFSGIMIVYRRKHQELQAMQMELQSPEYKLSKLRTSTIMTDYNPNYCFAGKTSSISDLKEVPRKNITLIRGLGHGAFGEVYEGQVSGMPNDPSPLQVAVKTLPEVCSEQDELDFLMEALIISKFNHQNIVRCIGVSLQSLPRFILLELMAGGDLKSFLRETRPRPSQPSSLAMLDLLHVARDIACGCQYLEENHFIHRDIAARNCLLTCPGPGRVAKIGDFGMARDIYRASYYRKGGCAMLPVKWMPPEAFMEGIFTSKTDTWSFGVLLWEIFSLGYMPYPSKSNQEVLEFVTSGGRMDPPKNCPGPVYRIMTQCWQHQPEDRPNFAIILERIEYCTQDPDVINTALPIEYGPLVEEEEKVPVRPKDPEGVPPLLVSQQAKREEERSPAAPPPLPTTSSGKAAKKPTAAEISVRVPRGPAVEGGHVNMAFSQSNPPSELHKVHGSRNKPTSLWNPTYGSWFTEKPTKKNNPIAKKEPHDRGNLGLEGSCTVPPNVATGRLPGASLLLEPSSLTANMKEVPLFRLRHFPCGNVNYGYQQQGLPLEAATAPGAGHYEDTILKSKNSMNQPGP
T1 sequence (P00533 25-1210): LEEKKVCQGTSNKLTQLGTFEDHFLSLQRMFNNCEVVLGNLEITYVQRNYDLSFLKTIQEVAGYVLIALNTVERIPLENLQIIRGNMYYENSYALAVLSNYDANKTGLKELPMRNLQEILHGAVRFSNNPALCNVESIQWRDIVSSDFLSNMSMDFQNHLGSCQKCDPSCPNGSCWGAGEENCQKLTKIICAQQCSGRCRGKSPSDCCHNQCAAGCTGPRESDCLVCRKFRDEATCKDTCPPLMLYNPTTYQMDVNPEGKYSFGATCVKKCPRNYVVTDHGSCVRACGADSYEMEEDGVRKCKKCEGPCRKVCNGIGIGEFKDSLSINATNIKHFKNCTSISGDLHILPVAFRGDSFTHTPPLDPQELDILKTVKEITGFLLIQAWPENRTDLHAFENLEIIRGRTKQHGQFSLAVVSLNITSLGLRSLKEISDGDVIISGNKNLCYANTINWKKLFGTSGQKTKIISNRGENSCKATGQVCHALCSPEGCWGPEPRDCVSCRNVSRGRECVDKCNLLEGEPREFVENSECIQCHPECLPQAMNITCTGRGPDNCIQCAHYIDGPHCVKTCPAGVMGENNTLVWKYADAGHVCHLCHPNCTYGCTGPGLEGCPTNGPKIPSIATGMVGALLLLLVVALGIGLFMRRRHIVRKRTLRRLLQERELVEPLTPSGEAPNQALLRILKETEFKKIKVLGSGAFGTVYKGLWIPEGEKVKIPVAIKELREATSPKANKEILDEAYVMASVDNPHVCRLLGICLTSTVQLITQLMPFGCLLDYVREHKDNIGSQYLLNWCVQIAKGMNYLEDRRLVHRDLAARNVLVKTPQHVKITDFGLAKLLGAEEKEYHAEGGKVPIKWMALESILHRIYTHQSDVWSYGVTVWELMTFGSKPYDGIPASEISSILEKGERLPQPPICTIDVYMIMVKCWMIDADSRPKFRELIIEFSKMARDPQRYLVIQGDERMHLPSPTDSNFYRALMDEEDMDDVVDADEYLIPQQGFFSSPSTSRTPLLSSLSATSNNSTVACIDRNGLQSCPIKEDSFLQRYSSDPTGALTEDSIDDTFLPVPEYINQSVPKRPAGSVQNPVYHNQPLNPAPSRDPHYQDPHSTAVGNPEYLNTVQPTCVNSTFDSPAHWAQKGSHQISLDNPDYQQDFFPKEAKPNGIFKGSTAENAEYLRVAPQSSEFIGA

SMILES: Cc1cc(Nc2ncc(Cl)c(Nc3ccccc3S(=O)(=O)C(C)C)n2)c(OC(C)C)cc1C1CCNCC1 [LDK378, 5-chloro-N^2-(2-isopropoxy-5-methyl-4-(piperidin-4-yl)phenyl)-N^4-[2-(propane-2-sulfonyl)-phenyl]-pyrimidine-2,4-diamine]
- STING ligand-induced IFNβ mRNA expression [1]: attenuation
- 3′3′-cGAMP-induced p-TBK1 [2, 8]: time-dependently reduced
- STING ligand-induced phosphorylation of TBK1, IRF3, and p65 [2, 9]: diminished
- 3′3′-cGAMP-, c-di-AMP-, and DMXAA-induced p-IRF3 and p-p65 ([2]; ligand 10 μg/ml): inhibited
- c-di-AMP- or DMXAA-induced p-TBK1 ([2]; ligand 10 μg/ml, 16 hours): inhibited
- 3′3′-cGAMP- or c-di-AMP-induced phosphorylation of ALK, EGFR, and AKT ([2]; ligand 10 μg/ml, 16 hours): attenuated
- 3′3′-cGAMP-induced p-TBK1 [3, 8]: time-dependently reduced
- STING ligand-induced phosphorylation of TBK1, IRF3, and p65 [3, 9]: diminished
- 3′3′-cGAMP-, c-di-AMP-, and DMXAA-induced p-IRF3 and p-p65 ([3]; ligand 10 μg/ml): inhibited
- c-di-AMP- or DMXAA-induced p-TBK1 ([3]; ligand 10 μg/ml, 16 hours): inhibited
- 3′3′-cGAMP- or c-di-AMP-induced phosphorylation of ALK, EGFR, and AKT ([3]; ligand 10 μg/ml, 16 hours): attenuated
- interaction between ALK and EGFR [4]: reduced
- 3′3′-cGAMP-induced IFNβ release ([5]; mouse pPMs, 3′3′-cGAMP 10 μg/ml, compound 10 μM): confirmed their inhibitory properties
- IFNβ release induced by STING ligands ([5]; pPMs, STING ligands 10 μg/ml, inhibitor 10 μM): inhibited
- CLP-induced lethality (animal death) ([6]; B6 mice, CLP 22-gauge needle, LDK378 20 mg/kg, intraperitoneally (i.p.), 2, 24, 48, and 72 hours after CLP, 20 mg/kg): conferred protection against lethality; also recorded: conferred significant protection; also recorded: prevented
- protection of STING-deficient mice in high-grade sepsis ([6]; CLP 17 G needle, STING-deficient mice): conferred further protection
- organ dysfunction by serum tissue enzymes (CK, AMYL, BUN, ALT) ([6]; CLP 22-gauge needle, LDK378 20 mg/kg, day 2-7): protective effects
- CLP-induced TNFα, IFNβ, MCP1, and IL-7 mRNA expression ([6]; CLP 22-gauge needle, LDK378 20 mg/kg, day 3): reduced
- CLP-induced tissue injury (H&E; lung, small intestine, other tissues) ([6]; CLP 22-gauge needle, LDK378 20 mg/kg, day 3, 20 mg/kg): reduced injury; also recorded: prevented
- top five downregulated circulating immune chemical mediators compared with control group ([6]; CLP 22-gauge needle, serum, day 3): IL-10, serpin E1, serpin F1, TIM-1, and CXCL2
- animal survival in low-, middle-, and high-grade sepsis models ([6]; CLP with 27 G, 22 G, 17 G needles, B6 mice): prolonged animal survival
- CLP-induced cytokine systemic release and accumulation in the serum ([6]; serum antibody array, CLP 22-gauge needle, LDK378 20 mg/kg, day 3): reduced
- IFNβ release induced by STING ligands [7]: inhibited
